Experimental findings from US8685970B2, “Quinolines and related analogs as sirtuin modulators” (GlaxoSmithKline, LLC, priority 2008, dated 2014) are described below.

Each structure is given as a SMILES string.

The assay addresses T1, SIRT1 (Homo sapiens, UniProt Q96EB6).
T1 sequence (Q96EB6 1-747): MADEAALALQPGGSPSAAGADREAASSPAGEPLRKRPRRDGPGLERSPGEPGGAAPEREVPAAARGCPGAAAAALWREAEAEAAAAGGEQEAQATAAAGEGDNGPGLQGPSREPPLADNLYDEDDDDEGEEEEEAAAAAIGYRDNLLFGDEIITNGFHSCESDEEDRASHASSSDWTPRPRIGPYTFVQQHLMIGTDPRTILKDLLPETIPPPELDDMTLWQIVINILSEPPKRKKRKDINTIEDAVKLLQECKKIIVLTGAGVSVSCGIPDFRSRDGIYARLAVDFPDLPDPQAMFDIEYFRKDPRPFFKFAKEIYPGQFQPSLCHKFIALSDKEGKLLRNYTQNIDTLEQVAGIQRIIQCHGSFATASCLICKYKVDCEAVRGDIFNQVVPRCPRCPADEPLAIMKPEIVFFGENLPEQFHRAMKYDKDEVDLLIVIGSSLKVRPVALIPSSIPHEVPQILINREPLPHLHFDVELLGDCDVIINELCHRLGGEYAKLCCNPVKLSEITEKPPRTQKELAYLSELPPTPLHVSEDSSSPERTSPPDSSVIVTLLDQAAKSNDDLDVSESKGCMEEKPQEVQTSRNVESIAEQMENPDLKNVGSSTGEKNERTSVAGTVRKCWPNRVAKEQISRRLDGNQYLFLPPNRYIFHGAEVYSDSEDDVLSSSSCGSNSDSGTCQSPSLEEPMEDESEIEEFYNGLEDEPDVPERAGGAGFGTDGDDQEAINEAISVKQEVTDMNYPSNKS
The experiment in a line: Mass spectrometry based SIRT1 deacetylation assay (activation). The settings on record: 10 nM SIRT1, 0.5 μM peptide substrate, 120 μM βNAD+, 25 min at 25° C. It counts as biochemical. The essentials:
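Recombinant N-His-tagged SIRT1 (E. coli BL21(DE3)), 10 nM, incubated 25 min at 25 °C with 0.5 μM biotin/5TMR-labelled acetyl-p53-derived 20-mer peptide and 120 μM βNAD+ in Tris-acetate pH 8 buffer with DTT and BSA. Formic acid stop; MS quantifies acetylated vs deacetylated peptide. EC1.5 = concentration giving 150% activation versus DMSO.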
For the compound `O=C(Nc1cccc(OCC(O)CO)c1)c1cccc2ccc(-c3cccc(OC(F)(F)F)c3)nc12` (stereo not drawn) [Compound 152], the “% Fold Act. (percent maximum fold activation)” value is on record as “A (Fold activation >200%)” and the “EC1.5 (concentration of test compound that results in 150% activation of SIRT1)” value is reported as “A (EC1.5<1.0 uM)”. Consider `O=C(Nc1nc(CN2CCOCC2)cs1)c1cccc2ccc(-c3cccc(C(F)(F)F)c3)nc12` [Compound 177], for which the “% Fold Act. (percent maximum fold activation)” value is recorded as “A (Fold activation >200%)” and the “EC1.5 (concentration of test compound that results in 150% activation of SIRT1)” value is “A (EC1.5<1.0 uM)”. Taken in the same sequence, the figures for `Cc1cccc(-c2ccc3cccc(NC(=O)c4cscn4)c3n2)c1` [Compound 79] were “B (Fold Activation <200%)” and “A (EC1.5<1.0 uM)”. The matching figures for `Cc1csc(NC(=O)c2cccc3cnc(-c4cccc(C(F)(F)F)c4)nc23)n1` [Compound 281]: “A (Fold activation >200%)” and “B (EC1.5 1-25 uM)”. Turning to `Cn1ccc(C(=O)Nc2cccc3ccc(-c4cccc(C(F)(F)F)c4)nc23)n1` [Compound 245], the “% Fold Act. (percent maximum fold activation)” value was “A (Fold activation >200%)” and the “EC1.5 (concentration of test compound that results in 150% activation of SIRT1)” value is given as “A (EC1.5<1.0 uM)”. For the compound `O=C(Nc1ncc(CN2CCOCC2)s1)c1cccc2ccc(-c3cccc(C(F)(F)F)c3)nc12` [Compound 188], the “% Fold Act. (percent maximum fold activation)” value is “A (Fold activation >200%)” and the “EC1.5 (concentration of test compound that results in 150% activation of SIRT1)” value was “A (EC1.5<1.0 uM)”. With `O=C(Nc1cccnc1)c1cccc2cnc(-c3cccc(N4CCOCC4)c3)nc12` [Compound 314], the “% Fold Act. (percent maximum fold activation)” value was “B (Fold Activation <200%)” and the “EC1.5 (concentration of test compound that results in 150% activation of SIRT1)” value is given as “A (EC1.5<1.0 uM)”. On to `Cc1csc(NC(=O)c2cccc3cnc(-c4cccnc4)nc23)n1` [Compound 295], for which the “EC1.5 (concentration of test compound that results in 150% activation of SIRT1)” value was “C (EC1.5>25 uM)”. On to `Cc1cccc(NC(=O)c2cccc3ccc(-c4cccc(N5CCOCC5)c4)nc23)n1` [Compound 268], for which the “% Fold Act. (percent maximum fold activation)” value is given as “A (Fold activation >200%)” and the “EC1.5 (concentration of test compound that results in 150% activation of SIRT1)” value is given as “A (EC1.5<1.0 uM)”. `O=C(Nc1ccccn1)c1cccc2ccc(-c3cccc(C(F)(F)F)c3)nc12` [Compound 30]: the “% Fold Act. (percent maximum fold activation)” value is recorded as “A (Fold activation >200%)” and the “EC1.5 (concentration of test compound that results in 150% activation of SIRT1)” value is “A (EC1.5<1.0 uM)”. Taken in the same sequence, the figures for `O=C(Nc1cnccn1)c1cccc2ccc(-c3ccccc3)nc12` [Compound 15] were “B (Fold Activation <200%)” and “A (EC1.5<1.0 uM)”. Turning to `O=C(Nc1nccs1)c1cccc2ccc(-c3cccnc3)nc12` [Compound 180], the “% Fold Act. (percent maximum fold activation)” value was “B (Fold Activation <200%)” and the “EC1.5 (concentration of test compound that results in 150% activation of SIRT1)” value is reported as “A (EC1.5<1.0 uM)”. As for `O=C(Nc1cccc2ccc(-c3ccccc3)nc12)c1cccc(N2CCCC2)c1` [Compound 1], the “EC1.5 (concentration of test compound that results in 150% activation of SIRT1)” value is recorded as “C (EC1.5>25 uM)”. The same measure, in the same setting: next, `O=S(=O)(Nc1cccnc1)Nc1cccc2ccc(-c3cccc(OC(F)(F)F)c3)nc12` [Compound 114]: “C (EC1.5>25 uM)”.

Consider `O=C(Nc1ccncn1)c1cccc2ccc(-c3cccc(N4CCOCC4)c3)nc12` [Compound 111], for which the “% Fold Act. (percent maximum fold activation)” value is recorded as “A (Fold activation >200%)” and the “EC1.5 (concentration of test compound that results in 150% activation of SIRT1)” value is listed as “A (EC1.5<1.0 uM)”.

With `O=C(NCc1ccncc1)c1cccc2ccc(-c3cccc(O[C@@H]4CCNC4)c3)nc12` [Compound 103], the “% Fold Act. (percent maximum fold activation)” value is recorded as “A (Fold activation >200%)” and the “EC1.5 (concentration of test compound that results in 150% activation of SIRT1)” value is listed as “B (EC1.5 1-25 uM)”. Turning to `O=C(Nc1ccncn1)c1cccc2ccc(-c3ccc(C(F)(F)F)cc3)nc12` [Compound 99], the “EC1.5 (concentration of test compound that results in 150% activation of SIRT1)” value is listed as “C (EC1.5>25 uM)”.

Take `O=C(Nc1ncnc2ccc(-c3cccc(OC(F)(F)F)c3)nc12)c1cccnc1` [Compound 210]: the “% Fold Act. (percent maximum fold activation)” value is “A (Fold activation >200%)” and the “EC1.5 (concentration of test compound that results in 150% activation of SIRT1)” value is “B (EC1.5 1-25 uM)”. As to `O=C(Nc1ncc(CN2CCCC2)s1)c1cccc2ccc(-c3cccnc3)nc12` [Compound 218], the “% Fold Act. (percent maximum fold activation)” value was “A (Fold activation >200%)” and the “EC1.5 (concentration of test compound that results in 150% activation of SIRT1)” value was “B (EC1.5 1-25 uM)”. With `O=C(Nc1nccs1)c1cccc2ccc(-c3ccccc3)nc12` [Compound 12], the “% Fold Act. (percent maximum fold activation)” value is “A (Fold activation >200%)” and the “EC1.5 (concentration of test compound that results in 150% activation of SIRT1)” value is “A (EC1.5<1.0 uM)”.

As to `c1cncc(CNc2cccc3ccc(-c4cccc(N5CCOCC5)c4)nc23)c1` [Compound 172], the “EC1.5 (concentration of test compound that results in 150% activation of SIRT1)” value is recorded as “C (EC1.5>25 uM)”. `O=C(Nc1nccs1)c1cccc2ccc(-c3ccccc3C(F)(F)F)nc12` [Compound 84]: the “% Fold Act. (percent maximum fold activation)” value is “A (Fold activation >200%)” and the “EC1.5 (concentration of test compound that results in 150% activation of SIRT1)” value was “B (EC1.5 1-25 uM)”. With `O=C(Nc1nccs1)c1cccc2ccc(-c3cccc(OC(F)(F)F)c3)nc12` [Compound 14], the “% Fold Act. (percent maximum fold activation)” value is “B (Fold Activation <200%)” and the “EC1.5 (concentration of test compound that results in 150% activation of SIRT1)” value is given as “A (EC1.5<1.0 uM)”. In the case of `Cc1cc(-c2ccc3cccc(NC(=O)c4cscn4)c3n2)ccn1` [Compound 197], the “% Fold Act. (percent maximum fold activation)” value is recorded as “A (Fold activation >200%)” and the “EC1.5 (concentration of test compound that results in 150% activation of SIRT1)” value was “A (EC1.5<1.0 uM)”. In the case of `O=C(Nc1nccs1)c1cccc2cnc(-c3cccc(N4CCOCC4)c3)nc12` [Compound 299], the “% Fold Act. (percent maximum fold activation)” value is “B (Fold Activation <200%)” and the “EC1.5 (concentration of test compound that results in 150% activation of SIRT1)” value is given as “B (EC1.5 1-25 uM)”.

Regarding `Cc1nnc(NC(=O)c2cccc3ccc(-c4cccc(N5CCOCC5)c4)nc23)s1` [Compound 252], the “% Fold Act. (percent maximum fold activation)” value is given as “A (Fold activation >200%)” and the “EC1.5 (concentration of test compound that results in 150% activation of SIRT1)” value was “A (EC1.5<1.0 uM)”. Consider `O=C(Nc1ccc(CN2CCOCC2)nc1)c1cccc2ccc(-c3cccc(C(F)F)c3)nc12` [Compound 289], for which the “% Fold Act. (percent maximum fold activation)” value is reported as “A (Fold activation >200%)” and the “EC1.5 (concentration of test compound that results in 150% activation of SIRT1)” value is recorded as “A (EC1.5<1.0 uM)”. As to `O=C(Nc1nccs1)c1cccc2ccc(-c3ccnc(N4CCC4)c3)nc12` [Compound 179], the “% Fold Act. (percent maximum fold activation)” value is “A (Fold activation >200%)” and the “EC1.5 (concentration of test compound that results in 150% activation of SIRT1)” value was “A (EC1.5<1.0 uM)”.

On to `O=C(Nc1cccnc1Cl)c1cccc2ccc(-c3cccc(C(F)(F)F)c3)nc12` [Compound 57], for which the “% Fold Act. (percent maximum fold activation)” value was “B (Fold Activation <200%)” and the “EC1.5 (concentration of test compound that results in 150% activation of SIRT1)” value is on record as “B (EC1.5 1-25 uM)”. With `Cc1cc(-c2ccc3cccc(C(=O)Nc4nccs4)c3n2)ccn1` [Compound 223], the “EC1.5 (concentration of test compound that results in 150% activation of SIRT1)” value is “C (EC1.5>25 uM)”.

`O=C(NC1CCNCC1)c1cccc2ccc(-c3cccc(C(F)(F)F)c3)nc12` [Compound 71]: the “% Fold Act. (percent maximum fold activation)” value is on record as “A (Fold activation >200%)” and the “EC1.5 (concentration of test compound that results in 150% activation of SIRT1)” value is listed as “B (EC1.5 1-25 uM)”. Consider `Fc1c(-c2ccc3cccc(NCc4cccnc4)c3n2)cccc1C(F)(F)F` [Compound 165], for which the “EC1.5 (concentration of test compound that results in 150% activation of SIRT1)” value is recorded as “C (EC1.5>25 uM)”.

On to `O=C(Nc1cccc2ccc(-c3cccc(C(F)(F)F)c3)nc12)c1cc[nH]n1` [Compound 224], for which the “% Fold Act. (percent maximum fold activation)” value is recorded as “A (Fold activation >200%)” and the “EC1.5 (concentration of test compound that results in 150% activation of SIRT1)” value is listed as “A (EC1.5<1.0 uM)”.

Regarding `Cc1cnc(NC(=O)c2cccc3ccc(-c4cccc(N5CCOCC5)c4)nc23)s1` [Compound 239], the “% Fold Act. (percent maximum fold activation)” value was “A (Fold activation >200%)” and the “EC1.5 (concentration of test compound that results in 150% activation of SIRT1)” value was “A (EC1.5<1.0 uM)”. On to `O=C(Nc1ccccn1)c1cccc2ncc(-c3ccccc3)nc12` [Compound 118], for which the “% Fold Act. (percent maximum fold activation)” value is on record as “B (Fold Activation <200%)” and the “EC1.5 (concentration of test compound that results in 150% activation of SIRT1)” value is “B (EC1.5 1-25 uM)”. Taken in the same sequence, the figures for `O=C(Nc1ccc(CN2CCOCC2)cc1)c1cccc2ccc(-c3cccc(C(F)F)c3)nc12` [Compound 303] were “A (Fold activation >200%)” and “A (EC1.5<1.0 uM)”. On to `O=C(Nc1ccccn1)c1cccc2cnc(-c3cccnc3)nc12` [Compound 298], for which the “EC1.5 (concentration of test compound that results in 150% activation of SIRT1)” value is recorded as “C (EC1.5>25 uM)”.
